Data as given in US6737383B1, “Herbicidal oxadiazolidines” (priority 1999, dated 2004).

What was measured:
bedstraw = test: Test B pre/postemergence bedstraw; assay type: in vivo, Galium aparine
How it was run: (§1)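 Herbicidal effect was estimated by eye on a ten-point control scale after plants spent twelve to sixteen days in a greenhouse following soil or foliar treatment. Foliar sprays targeted plants at one to four leaves; all doses were formulated in a non-phytotoxic solvent with surfactant.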

blackgrass = test: Test B pre/postemergence blackgrass; assay type: in vivo, Alopecurus myosuroides
How it was run: as §1

surinam grass = test: Test B pre/postemergence surinam grass; assay type: in vivo, Brachiaria decumbens
How it was run: as §1

cocklebur = test: Test B pre/postemergence cocklebur; assay type: in vivo, Xanthium strumarium
How it was run: as §1

corn = test: Test B pre/postemergence corn; assay type: in vivo, Zea mays
How it was run: as §1

crabgrass = test: Test B pre/postemergence crabgrass; assay type: in vivo, Digitaria sanguinalis
How it was run: as §1

giant foxtail = test: Test B pre/postemergence giant foxtail; assay type: in vivo, Setaria faberii
How it was run: as §1

morningglory = test: Test B pre/postemergence morningglory; assay type: in vivo, Ipomoea hederacea
How it was run: as §1

pigweed = test: Test B pre/postemergence pigweed; assay type: in vivo, Amaranthus retroflexus
How it was run: as §1

rape = test: Test B pre/postemergence rape; assay type: in vivo, Brassica napus
How it was run: as §1

soybean = test: Test B pre/postemergence soybean; assay type: in vivo, Glycine max
How it was run: as §1

sugar beet = test: Test B pre/postemergence sugar beet; assay type: in vivo, Beta vulgaris
How it was run: as §1

velvetleaf = test: Test B pre/postemergence velvetleaf; assay type: in vivo, Abutilon theophrasti
How it was run: as §1

wheat = test: Test B pre/postemergence wheat; assay type: in vivo, Triticum aestivum
How it was run: as §1

wild oat = test: Test B pre/postemergence wild oat; assay type: in vivo, Avena fatua
How it was run: as §1

purple nutsedge = test: Test B pre/postemergence purple nutsedge; assay type: in vivo, Cyperus rotundus
How it was run: as §1

[1] = Preemergence, Rate 62 g/ha, scale of 0 to 10 where 0 is no effect and 10 is complete control
[2] = Preemergence, Rate 125 g/ha, 0 is no effect, 10 is complete control
[3] = Preemergence, Rate 250 g/ha, scale 0 to 10, 0 is no effect, 10 is complete control
[4] = Preemergence, Rate 500 g/ha, scale 0 to 10 (0 no effect, 10 complete control)
[5] = Rate 62 g/ha, Postemergence, scale of 0 to 10 where 0 is no effect and 10 is complete control
[6] = Rate 125 g/ha, Postemergence, scale 0 to 10
[7] = Rate 500 g/ha, Postemergence, scale 0 to 10

CC(C)N(C(=O)n1oc(=O)n([C@H](C)c2ccccc2)c1=O)c1ccc(F)cc1 [Compound 179]
9: B. signalgrass plant response rating (surinam grass; [4]) | Crabgrass plant response rating (crabgrass; [3]) | Crabgrass plant response rating (crabgrass; [4]) | Crabgrass plant response rating (crabgrass; [7]) | Giant foxtail plant response rating (0 to 10 scale) (giant foxtail; [2])
0: Bedstraw plant response rating (bedstraw; [1]) | Bedstraw plant response rating (0 to 10 scale) (bedstraw; [2]) | Bedstraw plant response rating (bedstraw; [3]) | Bedstraw plant response rating (bedstraw; [4]) | Bedstraw plant response rating (bedstraw; [5]) | Blackgrass plant response rating (blackgrass; [1]) | Blackgrass plant response rating (0 to 10 scale) (blackgrass; [2]) | Blackgrass plant response rating (blackgrass; [5]) | B. signalgrass plant response rating (surinam grass; [5]) | B. signalgrass plant response rating (surinam grass; Rate 125 g/ha, Postemergence, scale 0 (no effect) to 10 (complete control)) | Plant response rating, B. signalgrass (surinam grass; Rate 250 g/ha, Postemergence, scale 0 to 10, 0 is no effect, 10 is complete control) | B. signalgrass plant response rating (surinam grass; Rate 500 g/ha, Postemergence, scale 0 to 10, 0 no effect, 10 complete control) | Cocklebur plant response rating (cocklebur; [1]) | Cocklebur plant response rating (0 to 10 scale) (cocklebur; [2]) | Cocklebur plant response rating (cocklebur; [3]) | Cocklebur plant response rating (cocklebur; [4]) | Cocklebur plant response rating (cocklebur; [5]) | Cocklebur plant response rating (cocklebur; [6]) | Plant response rating (0 to 10; 0 is no effect, 10 is complete control), Cocklebur (cocklebur; Rate 250 g/ha, Postemergence) | Corn plant response rating (corn; [1]) | Corn plant response rating (0 to 10 scale) (corn; [2]) | Corn plant response rating (corn; [3]) | Corn plant response rating (corn; [4]) | Corn plant response rating (corn; [5]) | Corn plant response rating (corn; [6]) | Plant response rating (0 to 10; 0 is no effect, 10 is complete control), Corn (corn; Rate 250 g/ha, Postemergence) | Corn plant response rating (corn; [7]) | Crabgrass plant response rating (crabgrass; [5]) | Crabgrass plant response rating (crabgrass; [6]) | Giant foxtail plant response rating (giant foxtail; [5]) | Giant foxtail plant response rating (giant foxtail; [6]) | Plant response rating (0 to 10; 0 is no effect, 10 is complete control), Giant foxtail (giant foxtail; Rate 250 g/ha, Postemergence) | Morningglory plant response rating (morningglory; [1]) | Morningglory plant response rating (0 to 10 scale) (morningglory; [2]) | Morningglory plant response rating (morningglory; [3]) | Morningglory plant response rating (morningglory; [4]) | Redroot pigweed plant response rating (pigweed; [5]) | Redroot pigweed plant response rating (pigweed; [6]) | Rape plant response rating (rape; [1]) | Rape plant response rating (0 to 10 scale) (rape; [2]) | Rape plant response rating (rape; [5]) | Rape plant response rating (rape; [6]) | Plant response rating (0 to 10; 0 is no effect, 10 is complete control), Rape (rape; Rate 250 g/ha, Postemergence) | Soybean plant response rating (soybean; [1]) | Soybean plant response rating (0 to 10 scale) (soybean; [2]) | Soybean plant response rating (soybean; [3]) | Soybean plant response rating (soybean; [4]) | Sugarbeets plant response rating (sugar beet; [1]) | Sugarbeets plant response rating (0 to 10 scale) (sugar beet; [2]) | Sugarbeets plant response rating (sugar beet; [3]) | Sugarbeets plant response rating (sugar beet; [4]) | Sugarbeets plant response rating (sugar beet; [5]) | Sugarbeets plant response rating (sugar beet; [6]) | Velvetleaf plant response rating (velvetleaf; [1]) | Velvetleaf plant response rating (0 to 10 scale) (velvetleaf; [2]) | Velvetleaf plant response rating (velvetleaf; [3]) | Velvetleaf plant response rating (velvetleaf; [6]) | Plant response rating (0 to 10; 0 is no effect, 10 is complete control), Velvetleaf (velvetleaf; Rate 250 g/ha, Postemergence) | Wheat plant response rating (wheat; [1]) | Wheat plant response rating (0 to 10 scale) (wheat; [2]) | Wheat plant response rating (wheat; [3]) | Wheat plant response rating (wheat; [6]) | Plant response rating (0 to 10; 0 is no effect, 10 is complete control), Wheat (wheat; Rate 250 g/ha, Postemergence) | Wheat plant response rating (wheat; [7]) | Wild oats plant response rating (wild oat; [1]) | Wild oats plant response rating (0 to 10 scale) (wild oat; [2]) | Wild oats plant response rating (wild oat; [3]) | Wild oats plant response rating (wild oat; [6]) | Plant response rating (0 to 10; 0 is no effect, 10 is complete control), Wild oats (wild oat; Rate 250 g/ha, Postemergence) | Nutsedge plant response rating (purple nutsedge; [1]) | Nutsedge plant response rating (0 to 10 scale) (purple nutsedge; [2]) | Nutsedge plant response rating (purple nutsedge; [3]) | Nutsedge plant response rating (purple nutsedge; [5]) | Nutsedge plant response rating (purple nutsedge; [6]) | Plant response rating (0 to 10; 0 is no effect, 10 is complete control), Nutsedge (purple nutsedge; Rate 250 g/ha, Postemergence) | Nutsedge plant response rating (purple nutsedge; [7])
10: Bedstraw plant response rating (bedstraw; [7]) | Giant foxtail plant response rating (giant foxtail; [3]) | Giant foxtail plant response rating (giant foxtail; [4]) | Redroot pigweed plant response rating (pigweed; [4]) | Nutsedge plant response rating (purple nutsedge; [4])
3: Velvetleaf plant response rating (velvetleaf; [7]) | Wild oats plant response rating (wild oat; [4])
8: B. signalgrass plant response rating (0 to 10 scale) (surinam grass; [2]) | Redroot pigweed plant response rating (pigweed; [7])
2: Blackgrass plant response rating (blackgrass; [3]) | Blackgrass plant response rating (blackgrass; [4]) | Blackgrass plant response rating (blackgrass; [6]) | Plant response rating (0 to 10; 0 is no effect, 10 is complete control), Crabgrass (crabgrass; Rate 250 g/ha, Postemergence) | Rape plant response rating (rape; [3]) | Rape plant response rating (rape; [7]) | Plant response rating (0 to 10; 0 is no effect, 10 is complete control), Sugarbeets (sugar beet; Rate 250 g/ha, Postemergence) | Wheat plant response rating (wheat; [4]) | Wild oats plant response rating (wild oat; [7])
1: Cocklebur plant response rating (cocklebur; [7]) | Soybean plant response rating (soybean; [5]) | Soybean plant response rating (soybean; [6]) | Plant response rating (0 to 10; 0 is no effect, 10 is complete control), Soybean (soybean; Rate 250 g/ha, Postemergence) | Soybean plant response rating (soybean; [7])
5: Bedstraw plant response rating (bedstraw; [6]) | Plant response rating (0 to 10; 0 is no effect, 10 is complete control), Bedstraw (bedstraw; Rate 250 g/ha, Postemergence) | Morningglory plant response rating (morningglory; [6]) | Plant response rating (0 to 10; 0 is no effect, 10 is complete control), Morningglory (morningglory; Rate 250 g/ha, Postemergence) | Morningglory plant response rating (morningglory; [7]) | Velvetleaf plant response rating (velvetleaf; [4])
6: Blackgrass plant response rating (blackgrass; [7]) | Crabgrass plant response rating (crabgrass; [1]) | Giant foxtail plant response rating (giant foxtail; [1]) | Sugarbeets plant response rating (sugar beet; [7])
7: B. signalgrass plant response rating (surinam grass; [1]) | Crabgrass plant response rating (0 to 10 scale) (crabgrass; [2]) | Redroot pigweed plant response rating (pigweed; [1]) | Redroot pigweed plant response rating (0 to 10 scale) (pigweed; [2]) | Redroot pigweed plant response rating (pigweed; [3])
4: Plant response rating (0 to 10; 0 is no effect, 10 is complete control), Blackgrass (blackgrass; Rate 250 g/ha, Postemergence) | Giant foxtail plant response rating (giant foxtail; [7]) | Morningglory plant response rating (morningglory; [5]) | Plant response rating (0 to 10; 0 is no effect, 10 is complete control), Redroot pigweed (pigweed; Rate 250 g/ha, Postemergence) | Rape plant response rating (rape; [4])
